Test results from US20090069302A1 (SMITHKLINE BEECHAM CORPORATION, priority 2006, published 2009).
pEC50: −log10 of the molar value.

Target: T1, AXOR109 (Homo sapiens, UniProt Q8TDU6)
T1 construct: expressed in transfected cells; host or cells: melanophore cells, transfected by electroporation
T1 sequence (Q8TDU6 1-330): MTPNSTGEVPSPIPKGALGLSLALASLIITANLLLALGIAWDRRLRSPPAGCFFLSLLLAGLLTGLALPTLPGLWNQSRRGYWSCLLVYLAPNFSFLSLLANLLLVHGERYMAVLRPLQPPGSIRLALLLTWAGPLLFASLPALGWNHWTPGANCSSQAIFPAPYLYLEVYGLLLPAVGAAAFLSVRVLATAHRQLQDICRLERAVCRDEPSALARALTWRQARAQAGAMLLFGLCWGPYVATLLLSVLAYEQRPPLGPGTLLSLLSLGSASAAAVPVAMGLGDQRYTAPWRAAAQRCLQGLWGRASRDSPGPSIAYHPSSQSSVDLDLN
Experiment: Human AXOR109/Melanophore Assay
Type: cell-based
Settings: melanophore assay; for Emax: 1 h; for pEC50: AXOR109 transfected melanophores
Procedure: AXOR109 is a Gs-coupled receptor and therefore increases intracellular cAMP leading to melanosome dispersion. Compounds of the present invention were characterized in a melanophore assay as described in Jayawickreme C K, et al., Current Protocols in Pharmacology (2005) 12.9.1-12.9.16. Briefly, melanophore cells are transfected by electroporation with AXOR109 expressing cDNA. Cells are then plated in 384 well clear bottom plates at 8E3 cells per well in 50 μl of conditioned fibroblast media (CFM). Compounds to be tested are serially diluted 3-fold in DMSO and further diluted 1:100 with melanophore assay buffer (MAB)+10 nM Melatonin to yield 11 point concentration response curves. Following 2 hour incubation with MAB+1% DMSO+10 nM Melatonin, initial transmittance is read on a TwisterII/Spectramax plate reader. Compounds are then added to the cells and incubated for 1 hour, and final transmittance is read as before. Results are compared to vehicle (MAB+1% DMSO+10 nM Melatonin) and to a positive control (MAB+1% DMSO+10 nM Melatonin+200 nM alpha-MSH). Data are calculated for each well as follows: 1-(Transmitance-final/Transmitance-initial). Each well result is then normalized to alpha-MSH, the system max control for Gs/Gq coupled receptors using the following equation: (ObjX−Control1)/(Control2−Control1)*100. The percent system max is used to generate the pEC50 using the equation: y=((Vmax*x̂n)/(K̂n+x̂n))+Y2. Acceptable Z-prime values should be >0.4. Compounds of the present invention have a pEC50≧5.0 in the above described assay.

[1] = normalized to alpha-MSH system max

SMILES | Emax [1] | pEC50 | % Max [1]
COc1ccc(S(=O)(=O)N(C)CCN(C)S(=O)(=O)c2ccc(OC)c(OC)c2)cc1 [Example 15, N-methyl-N-[2-(methyl{[4-(methyloxy)phenyl]sulfonyl}amino)ethyl]-3,4-bis(methyloxy)benzenesulfonamide] | 76 to 100% | 6.00 to 6.90 | 
COc1ccc(S(=O)(=O)N(C)CCN(C)S(=O)(=O)c2ccc3c(c2)OCCCO3)cc1OC [Example 73, N-{2-[{[3,4-bis(methyloxy)phenyl]sulfonyl}(methyl)amino]ethyl}-N-methyl-3,4-dihydro-2H-1,5-benzodioxepin-7-sulfonamide] | 76 to 100% | 5.00 to 5.90 | 
COc1ccc(S(=O)(=O)NCCN(C)S(=O)(=O)c2ccc(OC)c(OC)c2)cc1OC [Example 42, N-[2-({[3,4-bis(methyloxy)phenyl]sulfonyl}amino)ethyl]-N-methyl-3,4-bis(methyloxy)benzenesulfonamide] | 51 to 75% | 5.00 to 5.90 | 
CCc1cc(S(=O)(=O)N2CCCN(S(=O)(=O)c3ccc(OC)c(OC)c3)CC2)ccc1OC [Example 41, 1-{[3,4-bis(methyloxy)phenyl]sulfonyl}-4-{[3-ethyl-4-(methyloxy)phenyl]sulfonyl}hexahydro-1H-1,4-diazepine] | 51 to 75% | 6.00 to 6.90 | 
COc1ccc(S(=O)(=O)N2CCN(S(=O)(=O)c3ccc(OC)c(OC)c3)CC2)cc1F [Example 1, 1-{[3,4-bis(methyloxy)phenyl]sulfonyl}-4-{[3-fluoro-4-(methyloxy)phenyl]sulfonyl}piperazine] |  | 6.00 to 6.90 | 
CCN(C[C@H](C)N(CC)S(=O)(=O)c1ccc(OC)c(OC)c1)S(=O)(=O)c1ccc(OC)c(OC)c1 [Example 74, N,N′-(2S)-1,2-propanediylbis[N-ethyl-3,4-bis(methyloxy)benzenesulfonamide]] | 76 to 100% | 6.00 to 6.90 | 
COc1ccc(S(=O)(=O)N(C)C(C)C(C)N(C)S(=O)(=O)c2ccc(OC)c(OC)c2)cc1OC (stereo not drawn) [Example 55, N,N′-2,3-butanediylbis[N-methyl-3,4-bis(methyloxy)benzenesulfonamide]] | 51 to 75% | 6.00 to 6.90 | 
COc1ccc(S(=O)(=O)N2CCN(S(=O)(=O)c3ccc(OC)c(OC)c3)c3ccccc32)cc1OC [Example 83] | 51 to 75% | 6.00 to 6.90 | 
COc1ccc(S(=O)(=O)N(C)CCN(C)S(=O)(=O)c2ccc3c(c2)n(C)c(=O)n3C)cc1OC [Example 65, N-methyl-N-{2-[{[3,4-bis(methyloxy)phenyl]sulfonyl}(methyl)amino]ethyl}-1,3-dimethyl-2-oxo-2,3-dihydro-1H-benzimidazole-5-sulfonamide] | 51 to 75% | 5.00 to 5.90 | 
COc1ccc(S(=O)(=O)NCC(C)N(C)S(=O)(=O)c2ccc(OC)c(OC)c2)cc1OC (stereo not drawn) [Example 66, N-[2-({[3,4-bis(methyloxy)phenyl]sulfonyl}amino)-1-methylethyl]-N-methyl-3,4-bis(methyloxy)benzenesulfonamide] | 51 to 75% | 5.00 to 5.90 | 
COc1ccc(S(=O)(=O)N(C)CCN(C)S(=O)(=O)c2ccc3c(c2)OCCO3)cc1OC [Example 13, N-{2-[{[3,4-bis(methyloxy)phenyl]sulfonyl}(methyl)amino]ethyl}-N-methyl-2,3-dihydro-1,4-benzodioxin-6-sulfonamide] | 51 to 75% | 5.00 to 5.90 | 
COc1ccc(S(=O)(=O)N2CCN(S(=O)(=O)c3ccc(-c4cnco4)cc3)CC2)cc1OC [Example 2, 1-{[3,4-bis(methyloxy)phenyl]sulfonyl}-4-{[4-(1,3-oxazol-5-yl)phenyl]sulfonyl}piperazine] | 51 to 75% | 6.00 to 6.90 | 
COc1ccc(S(=O)(=O)N2C[C@H](C)N(S(=O)(=O)c3cccc4cccnc34)C[C@@H]2C)cc1OC [Example 69, 8-[((2S,5S)-4-{[3,4-bis(methyloxy)phenyl]sulfonyl}-2,5-dimethyl-1-piperazinyl)sulfonyl]quinoline] | 76 to 100% | 5.00 to 5.90 | 

The next lines start with the values.

Emax [1] | pEC50 | % Max [1] | SMILES
51 to 75% | 5.00 to 5.90 |  | COc1ccc(S(=O)(=O)N2CC[C@H](N(C)S(=O)(=O)c3ccc(OC)c(OC)c3)C2)cc1OC (stereo in doubt) [Example 84]
 | 5.00 to 5.90 | ** (“**” = 51% to 75%) | COc1ccc(S(=O)(=O)N2C[C@@H](C)N(S(=O)(=O)c3ccc(OC)c(OC)c3)[C@@H](C)C2)cc1OC [Example 20, 1,4-bis{[3,4-bis(methyloxy)phenyl]sulfonyl}-2,6-cis-dimethylpiperazine]
0 to 50% | 6.00 to 6.90 |  | COc1ccc(S(=O)(=O)N2C[C@@H](C)N(S(=O)(=O)c3ccc(OC)c(OC)c3)[C@H](C)C2)cc1OC [Example 17, (2R,6R)-1,4-bis{[3,4-bis(methyloxy)phenyl]sulfonyl}-2,6-dimethylpiperazine]
76 to 100% | 5.00 to 5.90 |  | COc1ccc(S(=O)(=O)N2C[C@@H]3C[C@H]2CN3S(=O)(=O)c2ccc(OC)c(OC)c2)cc1OC [Example 86]
76 to 100% | 6.00 to 6.90 |  | CCc1cc(S(=O)(=O)N2C[C@H](C)N(S(=O)(=O)c3ccc(OC)c(OC)c3)C[C@@H]2C)ccc1OC [Example 68, (2S,5S)-1-{[3,4-bis(methyloxy)phenyl]sulfonyl}-4-{[3-ethyl-4-(methyloxy)phenyl]sulfonyl}-2,5-dimethylpiperazine]
0 to 50% | 6.00 to 6.90 |  | CCCN(C1CCN(S(=O)(=O)c2ccc(OC)c(OC)c2)C1)S(=O)(=O)c1ccc(OC)c(OC)c1 (stereo not drawn) [Example 56, N-(1-{[3,4-bis(methyloxy)phenyl]sulfonyl}-3-pyrrolidinyl)-3,4-bis(methyloxy)-N-propylbenzenesulfonamide]
> 100% | 6.00 to 6.90 |  | COc1ccc(S(=O)(=O)N(C[C@H]2CCCN2S(=O)(=O)c2ccc(OC)c(OC)c2)C(C)C)cc1OC [Example 100, N-[((2R)-1-{[3,4-bis(methyloxy)phenyl]sulfonyl}-2-pyrrolidinyl)methyl]-N-(1-methylethyl)-3,4-bis(methyloxy)benzenesulfonamide]
51 to 75% | 5.00 to 5.90 |  | COc1ccc(S(=O)(=O)N2[C@H](C)CN(S(=O)(=O)c3ccc(OC)c(OC)c3)C[C@@H]2C)cc1O [Example 38, 5-[(4-{[3,4-bis(methyloxy)phenyl]sulfonyl}-2,6-cis-dimethyl-1-piperazinyl)sulfonyl]-2-(methyloxy)phenol]
51 to 75% | 6.00 to 6.90 |  | COc1ccc(S(=O)(=O)N2C[C@@H](C)N(S(=O)(=O)c3ccc(OC)c(OC(F)(F)F)c3)[C@@H](C)C2)cc1OC [Example 36, 4-{[3,4-bis(methyloxy)phenyl]sulfonyl}-2,6-cis-dimethyl-1-({4-(methyloxy)-3-[(trifluoromethyl)oxy]phenyl}sulfonyl)piperazine]
51 to 75% | > 6.90 |  | COc1ccc(S(=O)(=O)N2CC(C)N(S(=O)(=O)c3ccc(OC)c(OC)c3)CC2C)cc1OC (stereo not drawn) [Example 18, 1,4-bis{[3,4-bis(methyloxy)phenyl]sulfonyl}-2,5-dimethylpiperazine]
51 to 75% | 5.00 to 5.90 |  | CCC1CN(S(=O)(=O)c2ccc(OC)c(OC)c2)C(C)CN1S(=O)(=O)c1ccc(OC)c(OC)c1 (stereo not drawn) [Example 46, 1,4-bis{[3,4-bis(methyloxy)phenyl]sulfonyl}-2-ethyl-5-methylpiperazine]
76 to 100% | 5.00 to 5.90 |  | COc1ccc(S(=O)(=O)N2CCN(S(=O)(=O)c3ccc(OC)c(OC)c3)CC(=O)C2)cc1OC [Example 51, 1,4-bis{[3,4-bis(methyloxy)phenyl]sulfonyl}hexahydro-6H-1,4-diazepin-6-one]
51 to 75% | 6.00 to 6.90 |  | COc1ccc(S(=O)(=O)N2CCN(S(=O)(=O)c3ccc(OC)c(OC)c3)C(C)C2)cc1OC (stereo not drawn) [Example 29, 1,4-bis{[3,4-bis(methyloxy)phenyl]sulfonyl}-2-methylpiperazine]
76 to 100% | 6.00 to 6.90 |  | COc1ccc(S(=O)(=O)N2CCN(S(=O)(=O)c3ccc(OC)c(OC)c3)CC(F)C2)cc1OC [Example 52, 1,4-bis{[3,4-bis(methyloxy)phenyl]sulfonyl}-6-fluorohexahydro-1H-1,4-diazepine]
76 to 100% | 5.00 to 5.90 |  | CC[C@@H]1CN(S(=O)(=O)c2ccc(OC)c(OC)c2)[C@@H](CC)CN1S(=O)(=O)c1ccc(OC)c(OC)c1 [Example 45, (2R,5S)-1,4-bis{[3,4-bis(methyloxy)phenyl]sulfonyl}-2,5-diethylpiperazine]
76 to 100% | 5.00 to 5.90 |  | COc1ccc(S(=O)(=O)N2CC(C)(C)N(S(=O)(=O)c3ccc(OC)c(OC)c3)CC2=O)cc1OC [Example 48, 1,4-bis{[3,4-bis(methyloxy)phenyl]sulfonyl}-5,5-dimethyl-2-piperazinone]
